Data published in US11497752B2, “Compounds and uses thereof” (Foghorn Therapeutics Inc., priority 2018, dated 2022).

Assays:
BRM = BRM (Homo sapiens, UniProt P51531); experiment: ATPase catalytic activity of BRM (ADP-Glo in vitro biochemical assay)
BRG-1 = BRG-1 (Homo sapiens, UniProt P51532); experiment: ATPase catalytic activity of BRG-1 (ADP-Glo in vitro biochemical assay)
Sequence of BRG-1 (P51532 whole entry): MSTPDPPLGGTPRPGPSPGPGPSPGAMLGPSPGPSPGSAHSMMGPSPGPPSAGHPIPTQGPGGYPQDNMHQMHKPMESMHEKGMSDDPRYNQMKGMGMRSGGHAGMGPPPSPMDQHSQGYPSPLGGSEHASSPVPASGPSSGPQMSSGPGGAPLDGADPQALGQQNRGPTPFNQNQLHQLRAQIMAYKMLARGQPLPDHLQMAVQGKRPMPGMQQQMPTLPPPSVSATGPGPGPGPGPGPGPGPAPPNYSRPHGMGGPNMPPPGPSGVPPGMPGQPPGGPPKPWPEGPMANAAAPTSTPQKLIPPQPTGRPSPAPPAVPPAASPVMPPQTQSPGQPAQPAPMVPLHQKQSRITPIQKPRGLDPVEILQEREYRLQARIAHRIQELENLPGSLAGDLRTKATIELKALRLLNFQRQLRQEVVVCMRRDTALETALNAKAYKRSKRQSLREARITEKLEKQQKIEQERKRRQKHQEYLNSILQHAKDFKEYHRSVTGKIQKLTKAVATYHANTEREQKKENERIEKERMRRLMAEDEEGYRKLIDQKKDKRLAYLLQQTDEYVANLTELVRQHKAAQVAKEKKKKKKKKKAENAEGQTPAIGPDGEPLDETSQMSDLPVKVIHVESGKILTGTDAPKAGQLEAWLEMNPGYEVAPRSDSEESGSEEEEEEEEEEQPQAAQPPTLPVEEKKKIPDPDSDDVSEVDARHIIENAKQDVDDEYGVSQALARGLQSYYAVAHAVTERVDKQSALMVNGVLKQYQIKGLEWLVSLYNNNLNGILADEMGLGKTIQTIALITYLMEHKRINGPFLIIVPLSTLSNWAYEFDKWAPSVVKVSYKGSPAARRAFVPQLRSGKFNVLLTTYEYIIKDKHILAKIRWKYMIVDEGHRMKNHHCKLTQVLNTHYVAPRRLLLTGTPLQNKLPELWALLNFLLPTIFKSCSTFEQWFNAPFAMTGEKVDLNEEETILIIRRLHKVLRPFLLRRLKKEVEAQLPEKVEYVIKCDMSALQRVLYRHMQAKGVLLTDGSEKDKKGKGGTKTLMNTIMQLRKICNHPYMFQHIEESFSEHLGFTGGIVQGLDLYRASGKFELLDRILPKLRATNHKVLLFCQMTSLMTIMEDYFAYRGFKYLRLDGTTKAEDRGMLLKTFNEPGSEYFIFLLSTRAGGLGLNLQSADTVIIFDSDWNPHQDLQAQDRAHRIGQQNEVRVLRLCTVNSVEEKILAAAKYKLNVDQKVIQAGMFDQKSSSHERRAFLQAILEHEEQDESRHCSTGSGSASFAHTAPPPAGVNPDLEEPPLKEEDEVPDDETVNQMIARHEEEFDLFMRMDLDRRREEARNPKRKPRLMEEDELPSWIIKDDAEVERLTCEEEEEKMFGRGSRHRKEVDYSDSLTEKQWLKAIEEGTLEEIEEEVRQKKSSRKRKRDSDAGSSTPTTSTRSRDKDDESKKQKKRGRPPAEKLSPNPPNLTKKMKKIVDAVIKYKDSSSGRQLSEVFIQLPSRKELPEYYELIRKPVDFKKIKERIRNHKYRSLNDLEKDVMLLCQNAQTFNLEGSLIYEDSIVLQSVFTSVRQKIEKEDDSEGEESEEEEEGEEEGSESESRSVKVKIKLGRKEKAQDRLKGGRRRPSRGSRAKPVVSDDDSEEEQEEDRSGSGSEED

Sequence of BRM (P51531 whole entry): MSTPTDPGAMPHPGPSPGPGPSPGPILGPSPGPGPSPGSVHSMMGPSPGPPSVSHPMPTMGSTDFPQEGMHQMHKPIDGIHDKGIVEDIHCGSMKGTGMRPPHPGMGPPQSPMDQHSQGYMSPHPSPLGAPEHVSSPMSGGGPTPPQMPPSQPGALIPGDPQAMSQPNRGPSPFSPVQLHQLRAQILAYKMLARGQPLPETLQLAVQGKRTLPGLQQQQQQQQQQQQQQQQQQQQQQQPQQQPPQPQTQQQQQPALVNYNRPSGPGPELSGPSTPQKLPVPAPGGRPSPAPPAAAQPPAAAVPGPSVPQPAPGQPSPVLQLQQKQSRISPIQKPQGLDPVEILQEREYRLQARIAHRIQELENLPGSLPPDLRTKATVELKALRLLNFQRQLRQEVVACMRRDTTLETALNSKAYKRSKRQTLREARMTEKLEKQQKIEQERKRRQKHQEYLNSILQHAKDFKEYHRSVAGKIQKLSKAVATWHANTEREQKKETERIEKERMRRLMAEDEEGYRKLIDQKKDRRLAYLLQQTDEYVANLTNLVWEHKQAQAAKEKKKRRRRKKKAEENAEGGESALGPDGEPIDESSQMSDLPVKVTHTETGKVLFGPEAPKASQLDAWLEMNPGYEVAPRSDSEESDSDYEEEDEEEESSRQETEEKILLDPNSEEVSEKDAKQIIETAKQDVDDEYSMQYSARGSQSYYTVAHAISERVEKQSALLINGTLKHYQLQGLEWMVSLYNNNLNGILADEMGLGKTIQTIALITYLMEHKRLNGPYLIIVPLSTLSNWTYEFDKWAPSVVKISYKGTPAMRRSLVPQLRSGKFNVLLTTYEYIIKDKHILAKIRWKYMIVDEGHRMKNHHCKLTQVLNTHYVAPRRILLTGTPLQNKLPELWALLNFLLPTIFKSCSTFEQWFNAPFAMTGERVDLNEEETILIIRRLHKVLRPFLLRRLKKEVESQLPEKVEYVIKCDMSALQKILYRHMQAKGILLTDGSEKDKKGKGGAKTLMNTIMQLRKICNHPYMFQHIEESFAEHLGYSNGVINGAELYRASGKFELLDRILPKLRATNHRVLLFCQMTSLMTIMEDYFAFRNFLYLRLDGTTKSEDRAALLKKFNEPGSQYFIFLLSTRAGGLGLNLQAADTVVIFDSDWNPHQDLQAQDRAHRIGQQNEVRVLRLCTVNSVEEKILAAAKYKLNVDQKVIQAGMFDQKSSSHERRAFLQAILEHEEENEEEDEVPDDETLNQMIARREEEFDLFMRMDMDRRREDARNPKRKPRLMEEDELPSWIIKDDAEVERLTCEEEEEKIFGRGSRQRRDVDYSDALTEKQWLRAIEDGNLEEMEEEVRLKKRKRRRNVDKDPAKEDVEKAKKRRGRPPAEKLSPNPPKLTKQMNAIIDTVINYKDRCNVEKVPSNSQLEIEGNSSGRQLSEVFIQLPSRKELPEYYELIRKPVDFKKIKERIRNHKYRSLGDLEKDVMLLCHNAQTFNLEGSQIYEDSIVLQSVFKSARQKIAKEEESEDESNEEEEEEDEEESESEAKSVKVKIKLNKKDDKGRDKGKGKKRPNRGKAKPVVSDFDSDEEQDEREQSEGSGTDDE

CN(C)CCn1cc(-c2cccc(-c3csc(NC(=O)CNC(=O)c4ccc(N)cc4)n3)c2)ccc1=O [Compound 170, 4-amino-N-(2-((4-(3-(1-(2-(dimethylamino)ethyl)-6-oxo-1,6-dihydropyridin-3-yl)phenyl)thiazol-2-yl)amino)-2-oxoethyl)benzamide]
IC50 (BRM): 0.1 to 1 µM | BRM Max % Inhibition (BRM; Table 6): >95% | IC50 (BRG-1): 0.1 to 1 µM | BRG1 Max % Inhibition (BRG-1; Table 6): >95%

NCCn1ccc(-c2cccc(-c3csc(NC(=O)CNC(=O)c4ccc(N)cc4)n3)c2)cc1=O [Compound 166, 4-amino-N-(2-((4-(3-(1-(2-aminoethyl)-2-oxo-1,2-dihydropyridin-4-yl)phenyl)thiazol-2-yl)amino)-2-oxoethyl)benzamide]
IC50 (BRM): 0.1 to 1 µM | BRM Max % Inhibition (BRM; Table 6): >95% | IC50 (BRG-1): 0.1 to 1 µM | BRG1 Max % Inhibition (BRG-1; Table 6): >95%

CC(C)(O)c1cccc(-c2csc(NC(=O)CNC(=O)c3ccc(N)cc3)n2)c1 [Compound 198, 4-amino-N-[2-[[4-[3-(1-hydroxy-1-methyl-ethyl)phenyl]thiazol-2-yl]amino]-2-oxo-ethyl]benzamide]
IC50 (BRM): 0.1 to 1 µM | BRM Max % Inhibition (BRM; Table 6): >80% | IC50 (BRG-1): 0.1 to 1 µM | BRG1 Max % Inhibition (BRG-1; Table 6): >60%

Nc1ccc(C(=O)NCC(=O)Nc2nc(-c3cccc(-c4ccc(CO)cc4)c3)cs2)cc1 [Compound 153, 4-amino-N-(2-((4-(4′-(hydroxymethyl)-[1,1′-biphenyl]-3-yl)thiazol-2-yl)amino)-2-oxoethyl)benzamide]
IC50 (BRM): < 0.1 µM | BRM Max % Inhibition (BRM; Table 6): >90% | IC50 (BRG-1): < 0.1 µM | BRG1 Max % Inhibition (BRG-1; Table 6): >80%

CSCC[C@H](NC(=O)c1cccc(CN)c1)C(=O)Nc1nc(-c2ccccc2)cs1 [Compound 75]
IC50 (BRM): > 10 µM | BRM Max % Inhibition (BRM; Table 5): >50% | IC50 (BRG-1): > 10 µM | BRG1 Max % Inhibition (BRG-1; Table 5): >60%

CSCC[C@H](NC(=O)c1ccc(N)cc1)C(=O)Nc1nc(-c2ccc(C#N)c(-c3ccccc3)c2)cs1 [Compound 119, (S)-4-amino-N-(1-((4-(6-cyano-[1,1′-biphenyl]-3-yl)thiazol-2-yl)amino)-4-(methylthio)-1-oxobutan-2-yl)benzamide]
IC50 (BRM): 0.1 to 1 µM | BRM Max % Inhibition (BRM; Table 6): >95% | IC50 (BRG-1): 1 to 10 µM | BRG1 Max % Inhibition (BRG-1; Table 6): >95%

CC(=O)N(C)Cc1cccc(-c2cccc(-c3csc(NC(=O)CNC(=O)c4ccc(N)cc4)n3)c2)c1 [Compound 129, 4-amino-N-(2-((4-(3′-((N-methylacetamido)methyl)-[1,1′-biphenyl]-3-yl)thiazol-2-yl)amino)-2-oxoethyl)benzamide]
IC50 (BRM): 0.1 to 1 µM | BRM Max % Inhibition (BRM; Table 6): >95% | IC50 (BRG-1): 0.1 to 1 µM | BRG1 Max % Inhibition (BRG-1; Table 6): >95%

CNc1ccc(C(=O)N[C@@H](CCSC)C(=O)Nc2nc(-c3ccccc3)cs2)cc1 [Compound 81, 4-(methylamino)-N-[(1S)-3-methylsulfanyl-1-[(4-phenylthiazol-2-yl)carbamoyl]propyl]benzamide]
IC50 (BRM): < 1 µM | BRM Max % Inhibition (BRM; Table 5): >95% | IC50 (BRG-1): < 1 µM | BRG1 Max % Inhibition (BRG-1; Table 5): >95%

NCc1ccc(C(=O)NCC(=O)Nc2nc(-c3cccc(-c4ccncc4)c3)cs2)cc1 [Compound 100, 4-(aminomethyl)-N-(2-oxo-2-((4-(3-(pyridin-4-yl)phenyl)thiazol-2-yl)amino)ethyl)benzamide]
IC50 (BRM): 0.1 to 1 µM | BRM Max % Inhibition (BRM; Table 6): >80% | IC50 (BRG-1): 1 to 10 µM | BRG1 Max % Inhibition (BRG-1; Table 6): >80%

CS(=O)(=O)NCc1cccc(-c2csc(NC(=O)CNC(=O)c3cccc(S(C)(=O)=O)c3)n2)c1 [Compound 94, N-(2-((4-(3-(methylsulfonamidomethyl)phenyl)thiazol-2-yl)amino)-2-oxoethyl)-3-(methylsulfonyl)benzamide]
IC50 (BRM): 0.1 to 1 µM | BRM Max % Inhibition (BRM; Table 6): >95% | IC50 (BRG-1): 1 to 10 µM | BRG1 Max % Inhibition (BRG-1; Table 6): >90%

Cc1nc(-c2cccc(-c3csc(NC(=O)CNC(=O)c4ccc(N)cc4)n3)c2)cn1C [Compound 222, 4-amino-N-[2-[[4-[3-(1,2-dimethylimidazol-4-yl)phenyl]thiazol-2-yl]amino]-2-oxo-ethyl]benzamide]
IC50 (BRM): 0.1 to 1 µM | BRM Max % Inhibition (BRM; Table 6): >95% | IC50 (BRG-1): 0.1 to 1 µM | BRG1 Max % Inhibition (BRG-1; Table 6): >80%
